Test results as given in patent publication US10472347B2, “Aminopyrazine compounds with A2A antagonist properties” (Merck Sharp & Dohme Corp., priority 2014, dated 2019).

Biological target: T1, human A2a receptor (Homo sapiens, UniProt P29274)
T1 construct: purchased Perkin-Elmer RBHA2AM400UA; host or cells: HEK293 cells (membranes)
Assay: A2a competition binding assay, Scintillation Proximity technology
Conditions: membranes from HEK293 cells expressing human A2a receptor; Ki by Cheng-Prusoff equation
Experimental: Binding affinities of compounds of the invention for the human A2a receptor were determined in a competition binding assay using Scintillation Proximity technology. Thus, […] from HEK293 cells expressing the human A2a receptor were incubated with a compound of the invention at concentrations ranging from 3000 nM to 0.15 nM in a reaction mixture containing also 0.5 nM of a tritiated form of 5-amino-7-[2-phenethyl]-2-(furan-2-yl)-7H-pyrazolo[4,3-e][1,2,4]triazolo[1,5-c]pyrimidine (the tritiated compound) and 100 μg of wheat germ agglutin-coated yttrium silicate SPA beads for one hour at room temperature with agitation. The beads were then allowed to settle to the bottom of the wells for 1 hr, after which the membrane-associated radioactivity was determined by scintillation counting in a TopCount microplate reader. Ki values were determined using the Cheng-Prusoff equation.
HEK293 cells expressing the human, rat, dog or monkey adenosine 2a receptor (Purchased from Perkin-Elmer # RBHA2AM400UA).
The Tritiated compound was prepared in-house by MRL Radiochemistry according to published methods.
Wheat germ agglutinin-coated yttrium silicate SPA beads (GE Healthcare #RPNQ0023). Dilute to 25 mg/ml in assay buffer.
Assay Buffer was prepared in house: Dulbecco's calcium and magnesium free phosphate buffered saline+10 mM MgCl2
Adenosine deaminase from calf intestine, 10 mg/2 ml (Roche #10 102 105 001).
A2a antagonist standard (9-chloro-1-(2-furanyl)-[1,2,4]triazolo1,5-c]quinazolin-5-amine from Tocris Bioscience)
Make eight 1:3 serial dilutions in 100% DMSO from a 3 mM compound stock
Transfer 50 nl of compound into a 384-well OptiPlate (Perkin Elmer).
Typically, final concentrations of compound used in the assay ranged from 3000 nM to 0.152 nM.
Dilute a solution of the Tritiated compound to 1.25 nM in assay buffer. This is a 2.5× solution. The final concentration in the assay is 0.5 nM. Calculate the concentration by counting two 5 μl aliquots.
Use 0.25 ug of membrane/well. Dilute membranes to 9.7 μg/ml in assay buffer. Treat with 20 ug/ml adenosine deaminase (ADA) for 15 minutes at room temperature to degrade endogenous adenosine.
Use 100 μg/well wheat germ agglutinin-coated yttrium silicate SPA beads.
Mix ADA-treated membranes and SPA beads together for 30 min prior to assay.
To the Perkin-Elmer Optiplate-384 containing the compound titration add 20 μl of 2.5× solution of the Tritiated compound and 30 μl of the membrane-bead mixture. Incubate for one hour at room temperature with agitation.
Include total binding (assay buffer+1% DMSO) and non-specific binding (CGS15943, 1 μM) wells.
Allow the beads to settle for one hour.
A curve fitting program (i.e., Prism, Activity Base, Chemcart) is used to determine the EC50. The Ki value is calculated using the Cheng-Prusoff equation. Ki=EC50/(1+(radioligand concentration/Kd))

T1 sequence (P29274 whole entry): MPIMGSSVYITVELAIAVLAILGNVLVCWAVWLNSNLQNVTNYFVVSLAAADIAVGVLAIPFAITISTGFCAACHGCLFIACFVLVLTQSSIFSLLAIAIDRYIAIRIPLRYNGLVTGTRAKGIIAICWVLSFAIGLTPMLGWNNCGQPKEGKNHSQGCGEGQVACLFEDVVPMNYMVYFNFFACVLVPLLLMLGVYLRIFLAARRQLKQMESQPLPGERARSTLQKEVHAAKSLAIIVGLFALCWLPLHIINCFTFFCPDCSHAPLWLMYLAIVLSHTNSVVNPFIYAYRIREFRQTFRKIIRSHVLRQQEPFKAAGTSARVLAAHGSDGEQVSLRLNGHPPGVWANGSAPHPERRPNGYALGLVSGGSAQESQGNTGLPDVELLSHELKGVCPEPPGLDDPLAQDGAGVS

| Structure (SMILES) | Ki [nM] |
| --- | --- |
| Cc1cc(C)nc(CNC(=O)c2nc(C)c(-c3ncco3)nc2N)c1 [Ex-35, 3-amino-N-[(4,6-dimethylpyridin-2-yl)methyl]-6-methyl-5-(1,3-oxazol-2-yl)pyrazine-2-carboxamide] | 0.396 |
| Cc1nc(C(=O)NCc2cccc3c2ncn3CC(F)F)c(N)nc1-c1ncco1 [Ex-36, 3-amino-N-{[1-(2,2-difluoroethyl)-1H-benzimidazol-4-yl]methyl}-6-methyl-5-(1,3-oxazol-2-yl)pyrazine-2-carboxamide] | 0.464 |
| Cc1nc(C(=O)NCc2nc(C)c(C)n2C)c(N)nc1-c1ncco1 [Ex-37, 3-amino-6-methyl-5-(1,3-oxazol-2-yl)-N-[(1,4,5-trimethyl-1H-imidazol-2-yl)methyl]pyrazine-2-carboxamide] | 7.77 |
| Cc1nc(C(=O)NCc2ncn(C(C)C)c2C)c(N)nc1-c1ncco1 [Ex-38, 3-amino-6-methyl-N-{[5-methyl-1-(1-methylethyl)-1H-imidazol-4-yl]methyl}-5-(1,3-oxazol-2-yl)pyrazine-2-carboxamide] | 2.27 |
| Cc1nc(C(=O)NCc2cnco2)c(N)nc1-c1ncco1 [Ex-39, 3-amino-6-methyl-5-(1,3-oxazol-2-yl)-N-(1,3-oxazol-5-ylmethyl)pyrazine-2-carboxamide] | 33.9 |
| Cc1nc(C(=O)NCc2ccns2)c(N)nc1-c1ncco1 [Ex-40, 3-amino-N-(isothiazol-5-ylmethyl)-6-methyl-5-(1,3-oxazol-2-yl)pyrazine-2-carboxamide] | 14.6 |
| Cc1ccc(C)c(CNC(=O)c2nc(C)c(-c3ncco3)nc2N)n1 [Ex-41, 3-amino-N-[(3,6-dimethylpyridin-2-yl)methyl]-6-methyl-5-(1,3-oxazol-2-yl)pyrazine-2-carboxamide] | 0.593 |
| Cc1nc(C(=O)NCc2cc(C(F)(F)F)ccn2)c(N)nc1-c1ncco1 [Ex-42, 3-amino-6-methyl-5-(1,3-oxazol-2-yl)-N-{[4-(trifluoromethyl)pyridin-2-yl]methyl}pyrazine-2-carboxamide] | 0.672 |
| COc1cccnc1CNC(=O)c1nc(C)c(-c2ncco2)nc1N [Ex-43, 3-amino-N-[(3-methoxypyridin-2-yl)methyl]-6-methyl-5-(1,3-oxazol-2-yl)pyrazine-2-carboxamide] | 0.116 |
| Cc1nc(C(=O)NCc2nccn2CC(F)F)c(N)nc1-c1ncco1 [Ex-44, 3-amino-N-{[1-(2,2-difluoroethyl)-1H-imidazol-2-yl]methyl}-6-methyl-5-(1,3-oxazol-2-yl)pyrazine-2-carboxamide] | 0.533 |
| Cc1nc(C(=O)NCc2cc(Cl)ccn2)c(N)nc1-c1ncco1 [Ex-45, 3-amino-N-[(4-chloropyridin-2-yl)methyl]-6-methyl-5-(1,3-oxazol-2-yl)pyrazine-2-carboxamide] | 0.735 |
| Cc1nc(C(=O)NCc2ccncc2Cl)c(N)nc1-c1ncco1 [Ex-46, 3-amino-N-[(3-chloropyridin-4-yl)methyl]-6-methyl-5-(1,3-oxazol-2-yl)pyrazine-2-carboxamide] | 5.59 |
| Cc1nc(C(=O)NCc2ncc(F)cc2Cl)c(N)nc1-c1ncco1 [Ex-47, 3-amino-N-[(3-chloro-5-fluoropyridin-2-yl)methyl]-6-methyl-5-(1,3-oxazol-2-yl)pyrazine-2-carboxamide] | 1.8 |
| Cc1ccnnc1CNC(=O)c1nc(C)c(-c2ncco2)nc1N [Ex-48, 3-amino-6-methyl-N-[(4-methylpyridazin-3-yl)methyl]-5-(1,3-oxazol-2-yl)pyrazine-2-carboxamide] | 1.01 |
| Cc1nc(C(=O)NCc2ccc(Cl)cn2)c(N)nc1-c1ncco1 [Ex-49, 3-amino-N-[(5-chloropyridin-2-yl)methyl]-6-methyl-5-(1,3-oxazol-2-yl)pyrazine-2-carboxamide] | 1.26 |
| Cc1nc(C(=O)NCc2cccn(C)c2=O)c(N)nc1-c1ncco1 [Ex-50, 3-amino-6-methyl-N-[(1-methyl-2-oxo-1,2-dihydropyridin-3-yl)methyl]-5-(1,3-oxazol-2-yl)pyrazine-2-carboxamide] | 1.25 |
| Cc1nc(C(=O)NCc2ccccn2)c(N)nc1-c1ncco1 [Ex-51, 3-amino-6-methyl-5-(1,3-oxazol-2-yl)-N-(pyridin-2-ylmethyl)pyrazine-2-carboxamide] | 0.717 |

| Structure (SMILES) | Ki [nM] |
| --- | --- |
| Cc1nc(C(=O)NCc2cccc[n+]2[O-])c(N)nc1-c1ncco1 [Ex-52, 3-amino-6-methyl-5-(1,3-oxazol-2-yl)-N-[(1-oxidopyridin-2-yl)methyl]pyrazine-2-carboxamide] | 4.88 |
| Cc1nc(C(=O)NCc2ccc(F)nc2)c(N)nc1-c1ncco1 [Ex-53, 3-amino-N-[(6-fluoropyridin-3-yl)methyl]-6-methyl-5-(1,3-oxazol-2-yl)pyrazine-2-carboxamide] | 26.1 |
| Cc1nc(C(=O)NCc2cc(C(F)(F)F)cc(Cl)n2)c(N)nc1-c1ncco1 [Ex-54, 3-amino-N-{[6-chloro-4-(trifluoromethyl)pyridin-2-yl]methyl}-6-methyl-5-(1,3-oxazol-2-yl)pyrazine-2-carboxamide] | 1.77 |
| COc1ccc(CNC(=O)c2nc(C)c(-c3ncco3)nc2N)nc1C(F)(F)F [Ex-55, 3-amino-N-{[5-methoxy-6-(trifluoromethyl)pyridin-2-yl]methyl}-6-methyl-5-(1,3-oxazol-2-yl)pyrazine-2-carboxamide] | 3.89 |
| Cc1cnnc(CNC(=O)c2nc(C)c(-c3ncco3)nc2N)c1 [Ex-56, 3-amino-6-methyl-N-[(5-methylpyridazin-3-yl)methyl]-5-(1,3-oxazol-2-yl)pyrazine-2-carboxamide] | 21.5 |
| Cc1nc(C(=O)NCc2ccc(F)cn2)c(N)nc1-c1ncco1 [Ex-57, 3-amino-N-[(5-fluoropyridin-2-yl)methyl]-6-methyl-5-(1,3-oxazol-2-yl)pyrazine-2-carboxamide] | 1.03 |
| Cc1nc(C(=O)NCc2nccc(OCC(F)(F)F)c2C)c(N)nc1-c1ncco1 [Ex-58, 3-amino-6-methyl-N-{[3-methyl-4-(2,2,2-trifluoroethoxy)pyridin-2-yl]methyl}-5-(1,3-oxazol-2-yl)pyrazine-2-carboxamide] | 4.56 |
| Cc1nc(C(=O)NCc2ccc(C(F)(F)F)cn2)c(N)nc1-c1ncco1 [Ex-59, 3-amino-6-methyl-5-(1,3-oxazol-2-yl)-N-{[5-(trifluoromethyl)pyridin-2-yl]methyl}pyrazine-2-carboxamide] | 14.8 |
| Cc1nc(C(=O)NCC(C)(C)c2ccncc2)c(N)nc1-c1ncco1 [Ex-60, 3-amino-6-methyl-N-(2-methyl-2-pyridin-4-ylpropyl)-5-(1,3-oxazol-2-yl)pyrazine-2-carboxamide] | 9.2 |
| Cc1nc(C(=O)NCc2cc(F)ccn2)c(N)nc1-c1ncco1 [Ex-61, 3-amino-N-[(4-fluoropyridin-2-yl)methyl]-6-methyl-5-(1,3-oxazol-2-yl)pyrazine-2-carboxamide] | 2.46 |
| Cc1nc(C(=O)NCc2ncc(F)cc2F)c(N)nc1-c1ncco1 [Ex-62, 3-amino-N-[(3,5-difluoropyridin-2-yl)methyl]-6-methyl-5-(1,3-oxazol-2-yl)pyrazine-2-carboxamide] | 0.622 |
| Cc1nc(C(=O)NCc2cc(C(F)F)cc(C(F)F)n2)c(N)nc1-c1ncco1 [Ex-63, 3-amino-N-{[4,6-bis(difluoromethyl)pyridin-2-yl]methyl}-6-methyl-5-(1,3-oxazol-2-yl)pyrazine-2-carboxamide] | 2.52 |
| Cc1nc(C(=O)NCc2cccnc2O)c(N)nc1-c1ncco1 [Ex-64, 3-amino-N-[(2-hydroxypyridin-3-yl)methyl]-6-methyl-5-(1,3-oxazol-2-yl)pyrazine-2-carboxamide] | 1.5 |
| Cc1nc(C(=O)NCc2cccnc2Cl)c(N)nc1-c1ncco1 [Ex-65, 3-amino-N-[(2-chloropyridin-3-yl)methyl]-6-methyl-5-(1,3-oxazol-2-yl)pyrazine-2-carboxamide] | 4.19 |
| Cc1nc(C(=O)NC2CCN(c3ncccn3)CC2)c(N)nc1-c1ncco1 [Ex-66, 3-amino-6-methyl-5-(1,3-oxaol-2-yl)-N-(1-pyrimidin-2-ylpiperidin-4-yl)pyrazine-2-carboxamide] | 24.4 |
| Cc1cnccc1CNC(=O)c1nc(C)c(-c2ncco2)nc1N [Ex-67, 3-amino-6-methyl-N-[(3-methylpyridin-4-yl)methyl]-5-(1,3-oxazol-2-yl)pyrazine-2-carboxamide] | 64.1 |
